Experimental data published in ChEMBL document CHEMBL3751668, “A Pyrazolo[3,4-d]pyrimidin-4-amine Derivative Containing an Isoxazole Moiety Is a Selective and Potent Inhibitor of RET Gatekeeper Mutants” (J Med Chem, 2016).

Key:
[1] = system: Proto-oncogene tyrosine-protein kinase receptor Ret (Homo sapiens), P07949 [C634W]; conditions: TT
Description: Inhibition of RET C634W mutant in human TT cells assessed as cell growth inhibition after 10 days by MTT assay

[2] = system: Proto-oncogene tyrosine-protein kinase receptor Ret (Homo sapiens), P07949 [V804M]; conditions: BaF3
[3] = molecular target: Proto-oncogene tyrosine-protein kinase receptor Ret (Homo sapiens, UniProt P07949, V804M); assay: Inhibition of human Ret V804M mutant by radiometric assay in presence of [gamma-33P]-ATP
Proto-oncogene tyrosine-protein kinase receptor Ret (Homo sapiens, UniProt P07949, V804M), sequence (P07949 29-1114 V804M limits assumed): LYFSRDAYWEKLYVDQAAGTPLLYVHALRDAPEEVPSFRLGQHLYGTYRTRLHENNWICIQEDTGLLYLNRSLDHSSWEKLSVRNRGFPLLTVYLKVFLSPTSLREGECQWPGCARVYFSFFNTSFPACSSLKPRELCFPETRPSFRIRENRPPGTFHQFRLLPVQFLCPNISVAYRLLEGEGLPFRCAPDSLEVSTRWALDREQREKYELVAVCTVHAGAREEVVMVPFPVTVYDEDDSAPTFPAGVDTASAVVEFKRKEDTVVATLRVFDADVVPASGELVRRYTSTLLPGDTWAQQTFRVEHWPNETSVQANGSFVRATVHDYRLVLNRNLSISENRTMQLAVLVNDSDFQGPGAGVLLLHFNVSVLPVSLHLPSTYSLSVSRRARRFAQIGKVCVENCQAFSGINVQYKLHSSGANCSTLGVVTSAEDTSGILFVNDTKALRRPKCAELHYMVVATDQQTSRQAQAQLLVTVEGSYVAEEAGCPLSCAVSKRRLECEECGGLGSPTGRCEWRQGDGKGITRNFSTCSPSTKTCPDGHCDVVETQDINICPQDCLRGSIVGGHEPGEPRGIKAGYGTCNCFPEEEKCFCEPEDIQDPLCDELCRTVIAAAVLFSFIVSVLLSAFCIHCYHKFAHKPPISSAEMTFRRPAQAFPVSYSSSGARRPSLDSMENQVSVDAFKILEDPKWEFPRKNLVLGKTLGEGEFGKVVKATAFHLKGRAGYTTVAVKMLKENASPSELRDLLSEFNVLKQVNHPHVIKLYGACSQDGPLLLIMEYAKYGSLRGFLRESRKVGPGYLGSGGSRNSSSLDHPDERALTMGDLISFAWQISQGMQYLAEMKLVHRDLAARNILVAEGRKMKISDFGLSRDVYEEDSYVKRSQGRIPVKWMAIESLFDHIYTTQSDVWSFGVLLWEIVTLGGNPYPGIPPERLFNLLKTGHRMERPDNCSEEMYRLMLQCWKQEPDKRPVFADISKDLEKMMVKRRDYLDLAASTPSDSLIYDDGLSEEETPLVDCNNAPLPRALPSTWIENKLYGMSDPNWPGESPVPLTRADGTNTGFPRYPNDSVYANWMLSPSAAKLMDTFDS

[4] = molecular target: T1, Proto-oncogene tyrosine-protein kinase receptor Ret (Homo sapiens, UniProt P07949); conditions: BaF3
T1 sequence (P07949 whole entry): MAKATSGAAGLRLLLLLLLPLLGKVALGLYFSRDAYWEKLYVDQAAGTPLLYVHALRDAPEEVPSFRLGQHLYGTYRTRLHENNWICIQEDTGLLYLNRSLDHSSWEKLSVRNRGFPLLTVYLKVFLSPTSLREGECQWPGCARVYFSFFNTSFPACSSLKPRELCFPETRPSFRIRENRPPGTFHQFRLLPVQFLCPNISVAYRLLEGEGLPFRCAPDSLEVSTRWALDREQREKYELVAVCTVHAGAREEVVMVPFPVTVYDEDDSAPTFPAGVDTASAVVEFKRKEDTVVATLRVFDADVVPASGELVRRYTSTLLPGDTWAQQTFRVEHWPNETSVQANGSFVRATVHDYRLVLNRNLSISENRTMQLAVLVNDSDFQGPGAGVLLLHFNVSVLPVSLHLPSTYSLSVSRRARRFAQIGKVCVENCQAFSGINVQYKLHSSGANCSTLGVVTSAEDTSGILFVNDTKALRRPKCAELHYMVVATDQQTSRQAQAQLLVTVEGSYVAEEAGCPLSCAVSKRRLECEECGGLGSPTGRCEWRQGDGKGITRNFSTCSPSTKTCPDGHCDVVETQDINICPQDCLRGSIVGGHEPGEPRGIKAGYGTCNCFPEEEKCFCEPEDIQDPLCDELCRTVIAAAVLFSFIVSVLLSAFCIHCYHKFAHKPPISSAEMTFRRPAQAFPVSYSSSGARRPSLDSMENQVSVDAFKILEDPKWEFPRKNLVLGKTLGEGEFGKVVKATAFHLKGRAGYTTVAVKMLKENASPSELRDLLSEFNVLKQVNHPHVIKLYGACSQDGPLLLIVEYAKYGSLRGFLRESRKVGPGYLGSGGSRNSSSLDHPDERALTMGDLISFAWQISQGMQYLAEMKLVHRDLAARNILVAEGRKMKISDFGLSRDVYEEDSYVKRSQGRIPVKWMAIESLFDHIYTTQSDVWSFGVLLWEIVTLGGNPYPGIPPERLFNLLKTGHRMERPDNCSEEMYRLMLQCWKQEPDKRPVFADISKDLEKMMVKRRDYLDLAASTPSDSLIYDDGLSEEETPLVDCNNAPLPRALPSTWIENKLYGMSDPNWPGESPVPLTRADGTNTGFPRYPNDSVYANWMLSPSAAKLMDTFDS
Description: Inhibition of wild type TEL-fused RET (unknown origin) expressed in mouse BA/F3 cells assessed as cell growth inhibition after 48 hrs by MTT assay

[5] = Cytotoxicity against mouse BAF3 cells after 48 hrs by MTT assay; format: cell-based
[6] = molecular target: T1, Proto-oncogene tyrosine-protein kinase receptor Ret; assay: Inhibition of human wild type RET by radiometric assay in presence of [gamma-33P]-ATP
[7] = Cytotoxicity against human Nthy-ori 3-1 cells after 10 days by MTT assay; format: cell-based

Proto-oncogene tyrosine-protein kinase receptor Ret (Homo sapiens), P07949 [C634W], sequence (P07949 whole entry C634W): as the sequence (P07949 whole entry) above, with C634W counted along it
Proto-oncogene tyrosine-protein kinase receptor Ret (Homo sapiens), P07949 [V804M], sequence (P07949 whole entry V804M): as the sequence (P07949 whole entry) above, with V804M counted along it

With Nc1ncnc2[nH]nc(-c3cc(C4CC4)on3)c12 the GI50 [1] was over 10 µM, the GI50 [2] was over 10 µM and the IC50 [3] was 0.354 µM. The GI50 [4] was 5.34 µM, the GI50 at 48 h [5] was over 10 µM and the IC50 [6] was 0.052 µM. For the same molecule, the GI50 at 240 h [7] was 0.51 µM.

With CCCCCCCn1nc(-c2cc(C3CC3)on2)c2c(N)ncnc21 the GI50 [1] was over 10 µM, the GI50 [2] was over 10 µM and the IC50 [3] was 0.927 µM. The GI50 [4] was over 10 µM, the GI50 at 48 h [5] was over 10 µM and the IC50 [6] was 0.096 µM. It also gave a GI50 at 240 h [7] of 31.6 µM.

CC(C)n1nc(/C=N/O)c2c(N)ncnc21 showed a GI50 [1] of over 10 µM, a GI50 [2] of over 10 µM and an IC50 [3] of 3.68 µM. It also gave a GI50 [4] of over 10 µM, a GI50 at 48 h [5] of over 10 µM and an IC50 [6] of 4.9 µM. It also gave a GI50 at 240 h [7] of 107 µM.

For Nc1ncnc2c1c(-c1cc(C3CC3)on1)nn2C1CCOCC1, the GI50 [1] was 0.94 µM, the GI50 [2] was 1.93 µM and the IC50 [3] was 0.041 µM. It also gave a GI50 [4] of 0.44 µM, a GI50 at 48 h [5] of over 10 µM and an IC50 [6] of 0.005 µM. For the same molecule, the GI50 at 240 h [7] was 32.9 µM.

With CCc1cc(-c2nn(C(C)C)c3ncnc(N)c23)no1 the GI50 [1] was 2.61 µM, the GI50 [2] was 5.77 µM and the IC50 [3] was 0.531 µM. The GI50 [4] was 1.56 µM, the GI50 at 48 h [5] was over 10 µM and the IC50 [6] was 0.041 µM. The GI50 at 240 h [7] was 28.6 µM.

CC(C)n1nc(-c2cc(-c3ccc(F)cc3)on2)c2c(N)ncnc21 showed a GI50 [1] of over 10 µM, a GI50 [2] of over 10 µM and a GI50 [4] of over 10 µM. It also gave a GI50 at 48 h [5] of over 10 µM, an IC50 [6] of 0.15 µM and a GI50 at 240 h [7] of 9.77 µM.

For CC(C)n1nc(-c2cc(-c3ccccn3)on2)c2c(N)ncnc21, the GI50 [1] was 9.26 µM, the GI50 [2] was 0.7 µM and the IC50 [3] was 5.88 µM. It also gave a GI50 [4] of 1.11 µM, a GI50 at 48 h [5] of 5.3 µM and an IC50 [6] of 0.91 µM. For the same molecule, the GI50 at 240 h [7] was 1.63 µM.

Work on CC(C)c1cc(-c2nn(C(C)C)c3ncnc(N)c23)no1 yielded a GI50 [1] of 5.13 µM, a GI50 [2] of 5.9 µM and an IC50 [3] of 0.355 µM. The GI50 [4] was 2.4 µM, the GI50 at 48 h [5] was over 10 µM and the IC50 [6] was 0.041 µM. The GI50 at 240 h [7] was 23.7 µM.

Cn1nc(-c2cc(C3CC3)on2)c2c(N)ncnc21 gave a GI50 [1] of 3.51 µM, a GI50 [2] of 5.56 µM and an IC50 [3] of 0.182 µM. For the same molecule, the GI50 [4] was 2.67 µM, the GI50 at 48 h [5] was over 10 µM and the IC50 [6] was 0.027 µM. The GI50 at 240 h [7] was 28.7 µM.

With CC(C)n1nc(-c2cc(-c3ccccc3)on2)c2c(N)ncnc21 the GI50 [1] was over 10 µM, the GI50 [2] was 4.97 µM and the GI50 [4] was 3.46 µM. For the same molecule, the GI50 at 48 h [5] was over 10 µM, the IC50 [6] was 0.19 µM and the GI50 at 240 h [7] was 5.72 µM.

Molecule CC(C)n1nc(-c2cc(C3CCCCC3)on2)c2c(N)ncnc21 has a GI50 [1] of over 10 µM, a GI50 [2] of 4.73 µM and a GI50 [4] of 9.5 µM. It also gave a GI50 at 48 h [5] of over 10 µM, an IC50 [6] of 0.91 µM and a GI50 at 240 h [7] of 4.11 µM.
